In PubChem BioAssay AID179 (DTP/NCI, 2004):
Calls of active or inactive are those of the source.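 The calls were made as follows: active = compounds giving half or more protection of infected cells from virus-caused growth loss, again on retest; inactive = the rest.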

Test system: CEM cells HIV-1 protection, formazan growth assay
Test: NCI AIDS Antiviral Assay
Settings: for IC50: measured here: growth of uninfected CEM cells
In short: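 Human CEM cells, uninfected and HIV-1-infected, received five drug concentrations, and growth was read by soluble formazan assay. Compounds giving at least 50% protection were retested; reproducible 100% protection defined confirmed active.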

Structure (SMILES) | EC50 [µM] | IC50 [µM] | outcome
N#C/C(=C\NC(=S)N=Nc1c(O)[nH]c2ccccc12)c1nc2ccccc2s1 | > 200 | > 200 | 
O=S(=O)(O)CN(CCN(CS(=O)(=O)O)CS(=O)(=O)O)CS(=O)(=O)O | > 200 | 20.4 | 
CCC12C=CCN(C1)C(=O)Cc1c([nH]c3ccccc13)/C(=N/NC(=O)OC)C2 (stereo not given) | > 52.5 | > 52.5 | 
C[C@H](NC(=O)OC1C2C=CC(O)C1CC2)c1ccccc1 (stereo not given in full) | > 871 | 776 | 
C#CCC(O)c1ccc(OC)c(OCc2ccccc2)c1 (stereo not given) | > 200 | 69.2 | 
N#Cc1sc2c(c1OC(=O)c1ccc(Cl)cc1)c(=O)n(-c1ccccc1)c(=S)n2-c1ccccc1 | > 200 | 1.2 | 
CC(C)(Oc1ccc(C2C[C@H]2Cl)cc1)C(=O)O (stereo not given in full) | > 200 | > 200 | 
OCC(O)C(OC1OC(CO)C(O)C(O)C1O)c1nn(-c2ccc(Cl)cc2)c2nc3cc(Cl)c(Cl)cc3nc12 (stereo not given) |  |  | inactive
CCCCCC(C)(O)C1=NCCN1 (stereo not given) | > 200 | > 200 | 
Cc1ccc(C2(O)c3cccc4cccc(c34)C2(O)c2ccc(C)cc2)cc1 (stereo not given) | > 200 | 13.5 | 
N#CC(NNC(=O)c1ccccc1O)c1ccccc1O (stereo not given) | > 91.2 | 1.58 | 
COc1ccc(C(O)C(=O)c2nc3ccc(Cl)cc3[nH]c2=O)cc1 (stereo not given) |  |  | inactive
O=C1c2cccc3cccc(c23)C(=O)N1CC1CCCO1 (stereo not given) |  |  | inactive
COc1ccccc1N/N=c1\c2nc3ccccc3nc1n(-c1ccccc1C)c(=S)n2-c1ccccn1 | > 200 | > 100 | 
CC(C)(CO)NC(=O)c1cccc(C(=O)NC(C)(C)CO)c1Br | > 200 | > 200 | 
CCOC(=O)c1c(N2CCCC2)[nH]c(=O)c(C(c2cccs2)c2c(O)c(C(=O)OCC)c(N3CCCC3)[nH]c2=O)c1O | > 200 | 141 | 
O=C(OCC(OC(=O)c1ccccc1)C1CC(C2(O)CCCCC2)C(=O)O1)c1ccccc1 (stereo not given) | > 50.1 | > 50.1 | 
CC1CCN(Cc2cccnc2)CC1 |  |  | inactive
O=C1NC2=C(CCCCC/C2=N\O)C12CCCCCC2 |  |  | inactive
CCC[CH2][Ge]([CH2]CCC)([CH2]CCC)[O]C(=O)C(OC)c1ccccc1 (stereo not given) | > 151 | 7.41 | 
O=C(O)c1ccc(/C=N\N(CCO)C2=NCCN2)cc1 | > 200 | > 200 | 
N#CCCN(CCC#N)c1ccc(/C=C2\CC(O)(c3ccccc3)N(c3ccc(Cl)cc3)C2=O)cc1 (stereo not given) | > 5.5 | > 5.5 | 

Structure (SMILES) | EC50 [µM] | IC50 [µM] | outcome
CCC(C)[C@H](NC(=O)C1CCCN1C[C@H](O)[C@H](Cc1ccccc1)NC(=O)[C@@H](CC(N)=O)NC(=O)OCc1ccccc1)C(=O)N[C@H](Cc1ccccc1)C(=O)NCCCC[C@@H]1NC(=O)[C@H](CC(C)C)N(C)C(=O)[C@H](C(C)C)NC(=O)[C@H](CC(C)C)N(C)C(=O)[C@@H](CO)N(C)C(=O)[C@H](CC)NC(=O)[C@H]([C@H](O)C(C)C)N(C)C(=O)[C@H](C(C)C)N(C)C(=O)[C@H](CC(C)C)N(C)C(=O)[C@H](CC(C)C)N(C)C(=O)[C@@H](C)NC1=O (stereo not given in full) | 0.501 | 67.6 | 
O=C(c1ccccc1)N1C(=O)c2ccccc21 | > 162 | 49 | 
CC1CN(S(=O)(=O)c2cccc3cnccc23)CCN1 (stereo not given) | > 126 | 38 | 
O=[N+]([O-])c1ccc(C2CC(c3ccccc3)=Nc3ccccc3S2)cc1 (stereo not given) | > 35.5 | 5.75 | 
COc1ccc(CCc2nccn2C)cc1OC | > 200 | > 200 | 
COc1ccc(-c2nnc(CCCCCCCCc3nnc(-c4ccc(OC)cc4)n3N)n2N)cc1 | > 200 | > 200 | 
C=CCNC(=O)N(CCC)CCCC(NC(C)=O)C(=O)NCc1ccccc1 (stereo not given) | > 646 | > 646 | 
[N-]=[N+]=NCC(CO)OCn1cc(Cc2ccccc2)c(=O)[nH]c1=O (stereo not given) |  |  | inactive
CN(C)CCNC(=O)c1cccc2c1Oc1cccc([N+](=O)[O-])c1O2 | > 200 | 22.4 | 
O=C1C[C@@H](c2ccccc2)O[C@@H](c2ccccc2)C1 | > 200 | 112 | 
CC(C)(C)CP(=S)(CCP(CCP(=S)(CC(C)(C)C)CC(C)(C)C)CCP(=S)(CC(C)(C)C)CC(C)(C)C)CC(C)(C)C | > 12.3 | > 12.3 | 
S=C(SSSC(=S)N(C1CCCCC1)C1CCCCC1)N(C1CCCCC1)C1CCCCC1 |  |  | inactive
O=c1c2cccc3cccc(c4oc5c6cccc7cccc(c(=O)c5c14)c76)c32 |  |  | inactive
COC(=O)C1(CCSc2ccccc2)CCCC1=O (stereo not given) | > 13.5 | > 13.5 | 
CN(Cc1cnc2nc(N)nc(N)c2n1)c1ccc(C(=O)N[C@@H](CCC(=O)O)C(=O)O)cc1 | > 1.51 | 0.00372 | 
O=c1c(SCc2ccccc2)c(SCc2ccccc2)cnn1-c1ccccc1 | > 24 |  | 
CC(C)N1CCN(C(C)C)CCN(C(C)C)CC1.[O]=[Mo](=[O])=[O] | > 100 | 75.9 | 
CCC(C)SSc1ccccc1C(=O)Nc1ccc(Cl)cc1 (stereo not given) | > 200 | 0.776 | 
S=C1NC2=C(COC/C2=C\c2ccccc2Cl)C(c2ccccc2Cl)N1 (stereo not given) |  |  | inactive
CSc1nc2[nH]c(=O)n(O)c(=O)c2n1Cc1ccccc1 | > 200 | 3.8 | 
Cn1cnc([N+](=O)[O-])c1Sc1ncnc2nc[nH]c12 | > 200 | 10.7 | 
O=C(NC(=Nc1ccccc1)SCCSC(=Nc1ccccc1)NC(=O)c1ccccc1)c1ccccc1 | > 18.6 | > 18.6 | 

Structure (SMILES) | EC50 [µM] | IC50 [µM] | outcome
CC(=O)N(CN1C(=O)CCC1C(=O)O)c1ccccc1 (stereo not given) |  |  | inactive
Nc1ncnc2c1N=C(c1ccccc1)CC(c1ccccc1)N2 (stereo not given) | > 200 | > 200 | 
C=CCCCCC1CCC2CCC(CCCCC=C)N12 (stereo not given) | > 95.5 | 79.4 | 
Cc1ccc(-c2c(C#N)c(-c3ccc([N+](=O)[O-])cc3)c(C#N)c(=O)n2NS(=O)(=O)c2ccc(C)cc2)cc1 | > 200 | 12 | 
CCN(CC)c1ccc2c(c1)Nc1cc(=C(C#N)C#N)c3ccccc3c1=N2 | > 19.5 | > 19.5 | 
CCC1CN2CCC3(C(=O)Nc4ccccc43)C2CC1/C(=C/OC)C(=O)OC (stereo not given) |  |  | inactive
Cc1c(C(=O)O)cc2n(c1=O)Cc1cc3ccccc3nc1-2 | > 10 | > 10 | 
COC(=O)C(C(=O)C(=O)Nc1c(Cl)cc([N+](=O)[O-])cc1Cl)c1csc(-n2nc(C3=CCCCC3)cc2-c2ccccc2)n1 (stereo not given) | > 107 | > 107 | 
COc1cc(CNc2nc3cc(C(F)(F)F)ccc3nc2C(=O)O)cc(OC)c1OC | > 200 | 97.7 | 
NNC(=O)c1n[nH]nc1C(=O)NN | > 200 | > 200 | 
COc1ccc2c(c1)-c1[nH]c3ccccc3c1CC2 | > 200 | 12 | 
CCCc1n[nH]c(=O)n1N1C(=O)C=CC1=O | > 200 | > 200 | 
O=[N+]([O-])c1ccc(N=Nc2c(F)cc(NCS(=O)(=O)O)cc2F)cc1 | > 100 | > 100 | 
CC(=O)Nc1c(C#N)c2n(c1C(=O)Nc1ccc(Cl)cc1)CCC2 | > 200 | > 200 | 
O=C(c1ccccc1F)c1c(NCc2ccccc2)c(=O)c1=O | 53.7 | 102 | 
O=C1OC(=O)C2C1C(c1ccccc1)N1C3C(=O)OC(=O)C3C(c3ccccc3)N21 (stereo not given) |  |  | inactive
Cc1cn(C2CC(NO)C(CO)O2)c(=O)[nH]c1=O (stereo not given) | 38.9 | 178 | 
O=C(NCCCCNCCCNC(=O)c1cc(-c2ccccc2)nc2ccccc12)c1cc(-c2ccccc2)nc2ccccc12 | > 20 | 3.16 | 
COC(=O)C(N=O)C(=O)OC |  |  | inactive
O=S1c2ccccc2N=C(c2ccc3ccccc3c2)CC1c1ccccc1 (stereo not given) | > 19.1 | > 19.1 | 
O=c1nc(N2CCCC2)nc(N2CCCC2)s1 |  |  | inactive
O=C(c1ccccc1)C1C(c2ccccc2)SC(c2ccccc2)CC1(O)c1ccccc1 (stereo not given) | > 151 | 20.9 | 

Structure (SMILES) | EC50 [µM] | IC50 [µM] | outcome
COC(=O)C1CC23CC1(OC(C)=O)CCC2c1ccc(OC)cc1C3=O (stereo not given) | > 61.7 | > 61.7 | 
COc1ccc(CC2COC(=O)[C@@H]2Cc2cccc(O)c2)cc1OC (stereo not given in full) | > 200 | 155 | 
CC(C)(C)C1CNP(=O)(c2ccccc2)OC1 (stereo not given) | > 70.8 | > 70.8 | 
N#C/C(=C\c1cccc(C#N)c1)c1ccccc1 | > 31.6 | > 31.6 | 
CCOC(=O)NC(=O)c1cn(C2OC(CO)C(O)C2O)c(=O)[nH]c1=O (stereo not given) | > 692 | > 692 | 
COc1ccc2[nH]c3c(C)c4cc[n+](C)cc4c(C)c3c2c1 | > 20 | 0.417 | 
O=[N+]([O-])c1ccc2occ3c2c1CCC3 | 67.6 | 263 | 
S=C(N/N=C/c1ccccn1)N1CC2CCC(CC2)C1 | > 200 | 0.0631 | 
CCOC(=O)C12CCSC1C1(C#N)C(C#N)=CC2(N=P(c2ccccc2)(c2ccccc2)c2ccccc2)n2c(=O)n(-c3ccccc3)c(=O)n21 (stereo not given) | > 26.3 | > 26.3 | 
O=C1CC2(C(=O)N1CN1CCOCC1)c1ccccc1-c1ccccc12 | > 102 | 13.8 | 
O=C(O)C1CCC(C(=O)O)SS1 (stereo not given) | > 1200 | > 1200 | 
COC(=O)c1ccc2cc(O)ccc2c1 | > 200 | 83.2 | 
O=c1scc(-c2ccc([N+](=O)[O-])cc2)s1 | > 6.03 | > 6.03 | 
Cc1c(N=Nc2cc(N=Nc3ccc(N=Nc4ccc(O)c(C(=O)O)c4)cc3)c(N)cc2N)cccc1S(=O)(=O)O | 25.7 | > 100 | 
CCSCCCCCCCCCCC(=O)OCC1OC(n2cc(C)c(=O)[nH]c2=O)CC1O (stereo not given) | > 56.2 | 26.3 | 
Cc1c(Cc2ccccc2)n(C(C)OCCN(OC(=O)Oc2ccccc2)C(=O)Oc2ccccc2)c(=O)[nH]c1=O (stereo not given) | > 200 | 53.7 | 
O=C1c2ccccc2C(=O)N1CCCC[P+](c1ccccc1)(c1ccccc1)c1ccccc1 | > 200 | 15.5 | 
CC(=O)N(C)c1ccc(N=CN(C)C)cc1 | > 200 | > 200 | 
Cn1c2c(cc(-c3ccccc3)c1=O)COc1ccccc1-2 | > 89.1 | 46.8 | 
